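1) Cells in 96-well plates. 2) Compound, 48 h, 5 concentrations. 3) Linear interpolation between surrounding doses. 4) Unreached endpoint = highest concentration. Here, GI50 denotes the concentration required for 50% inhibition of growth.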 Active and inactive are the calls of the source. No stated cut-off is given here; in the data, active = GI50 up to about 1.1 µM and inactive = higher.
Tests used:
Assay in all cases: NCI anticancer screen, dose series, 48 h
UACC-257 = test system: UACC-257
TK-10 = test system: TK-10
HCT-15 = test system: HCT-15
DMS-114 = test system: DMS-114
SF-539 = test system: SF-539
SNB-75 = test system: SNB-75
A549 = test system: A549
Malme-3M = test system: Malme-3M
ACHN = test system: ACHN
SN12C = test system: SN12C
CCRF-CEM = test system: CCRF-CEM
SK-MEL-28 = test system: SK-MEL-28
A498 = test system: A498
KM12 = test system: KM12
SK-OV-3 = test system: SK-OV-3
MDA-MB-231 = test system: MDA-MB-231
T47D = test system: T47D
NCI/ADR-RES = test system: NCI/ADR-RES
Hs-578T = test system: Hs-578T
UACC-62 = test system: UACC-62

SMILES | GI50 (UACC-257) | GI50 (TK-10) | GI50 (HCT-15) [µM] | GI50 (DMS-114) | GI50 (SF-539) | GI50 (SNB-75) | GI50 (A549) | GI50 (Malme-3M) | GI50 (ACHN) | GI50 (SN12C) | GI50 (CCRF-CEM) | GI50 (SK-MEL-28) | GI50 (A498) | GI50 (KM12) | GI50 (SK-OV-3) | GI50 (MDA-MB-231) | GI50 (T47D) | GI50 (NCI/ADR-RES) | GI50 (Hs-578T) | GI50 (UACC-62)
O=C(Nc1ccc2[nH]c3c(-c4ccccc4)nccc3c2c1)c1ccccc1[N+](=O)[O-] | 4.11 µM (inactive) | 4.18 µM (inactive) | 1.53 | 3.74 µM (inactive) | 1.37 µM (inactive) | 2.47 µM (inactive) | 4.88 µM (inactive) | 1.82 µM (inactive) | 3.94 µM (inactive) | 64.6 µM (inactive) | 5.93 µM (inactive) | 4.95 µM (inactive) | 3.24 µM (inactive) | 3.97 µM (inactive) | – | – | – | – | – | –
COc1ccc2c(C)cc(N/N=C(\C)C=O)nc2c1 | 15.8 µM (inactive) | 15.7 µM (inactive) | 3.78 | – | 6.25 µM (inactive) | 13.6 µM (inactive) | 18.5 µM (inactive) | 12 µM (inactive) | 15.6 µM (inactive) | 11.2 µM (inactive) | 1.82 µM (inactive) | 13.7 µM (inactive) | 14.5 µM (inactive) | 12.3 µM (inactive) | 11.2 µM (inactive) | 9.33 µM (inactive) | 15.5 µM (inactive) | 11.7 µM (inactive) | 15.5 µM (inactive) | 12.6 µM (inactive)
N=C(N)NNC(=O)CCn1[nH]c(=O)c(Cl)c(Cl)c1=O | > 100 µM (inactive) | > 100 µM (inactive) | > 100 | > 100 µM (inactive) | > 100 µM (inactive) | > 100 µM (inactive) | > 100 µM (inactive) | > 100 µM (inactive) | > 100 µM (inactive) | > 100 µM (inactive) | > 100 µM (inactive) | > 100 µM (inactive) | – | > 100 µM (inactive) | > 100 µM (inactive) | – | – | – | – | > 100 µM (inactive)
Cc1ccc(NC(=O)CSc2nnc(-c3ccc(/N=C\c4ccc(Cl)cc4)cc3)o2)cc1 | > 100 µM (inactive) | > 100 µM (inactive) | > 100 | > 100 µM (inactive) | – | 72.8 µM (inactive) | > 100 µM (inactive) | > 100 µM (inactive) | > 100 µM (inactive) | > 100 µM (inactive) | > 100 µM (inactive) | > 100 µM (inactive) | – | > 100 µM (inactive) | > 100 µM (inactive) | – | – | – | – | > 100 µM (inactive)
CC1(C)N=C(c2ccccc2)SC12S[C@@H]1CCCC[C@H]1S2 | 41.5 µM (inactive) | > 100 µM (inactive) | > 100 | – | > 100 µM (inactive) | > 100 µM (inactive) | > 100 µM (inactive) | 56.2 µM (inactive) | > 100 µM (inactive) | > 100 µM (inactive) | > 100 µM (inactive) | > 100 µM (inactive) | 17.9 µM (inactive) | > 100 µM (inactive) | > 100 µM (inactive) | > 100 µM (inactive) | 35.8 µM (inactive) | > 100 µM (inactive) | 4.57 µM (inactive) | > 100 µM (inactive)
Sc1nnc(-c2ccnc(-c3nnc(S)[nH]3)c2)[nH]1 | > 100 µM (inactive) | > 100 µM (inactive) | > 100 | > 100 µM (inactive) | > 100 µM (inactive) | – | > 100 µM (inactive) | > 100 µM (inactive) | > 100 µM (inactive) | > 100 µM (inactive) | > 100 µM (inactive) | > 100 µM (inactive) | > 100 µM (inactive) | > 100 µM (inactive) | > 100 µM (inactive) | – | – | – | – | > 100 µM (inactive)
COC(=O)C(C(=O)C(=O)Nc1ccccc1OC)c1csc(-n2nc(-c3ccccc3)cc2-c2ccccc2)n1 (centres undefined) | > 100 µM (inactive) | > 100 µM (inactive) | > 100 | 49.5 µM (inactive) | – | 8.97 µM (inactive) | > 100 µM (inactive) | > 100 µM (inactive) | > 100 µM (inactive) | > 100 µM (inactive) | > 100 µM (inactive) | – | > 100 µM (inactive) | 95.9 µM (inactive) | > 100 µM (inactive) | – | – | – | – | > 100 µM (inactive)
CCC(=C/[C@H](C)C/C=C/C(C)=C/[C@@H](C)C(=O)[C@@H](C)[C@H](O)[C@@H](C)CC)/C=C/[C@H]1CC=CC(=O)O1 [CALLYSTATIN A] | < 0.0012 µM (active) | < 0.0012 µM (active) | < 0.0012 | – | < 0.0012 µM (active) | < 0.0012 µM (active) | < 0.0012 µM (active) | < 0.0012 µM (active) | < 0.0012 µM (active) | < 0.0012 µM (active) | < 0.0012 µM (active) | < 0.0012 µM (active) | < 0.0012 µM (active) | < 0.0012 µM (active) | < 0.0012 µM (active) | < 0.0012 µM (active) | < 0.0012 µM (active) | < 0.0012 µM (active) | < 0.0012 µM (active) | < 0.0012 µM (active)
